Values joined by “and” are separate entries in the source; they are usually repeats but may differ in a detail not shown here. Identical values can stand only once. Like-named read-outs stand apart in the source and are kept apart here.
Biological target: hCB2 (Homo sapiens, UniProt P34972)
Test: bioSensAll ebBRET signaling profiling, hCB2
Format: cell-based
Design: host or cells: HEK293SL cells, transient PEI transfection
Settings: for G15 hCB2 / Gq hCB2 / Gs hCB2 / G13 hCB2: raw signal; for EC50: read-out: EC50 [95% CI]; for Emax: normalized to CP-55,940

Chain of hCB2 (P34972 whole entry): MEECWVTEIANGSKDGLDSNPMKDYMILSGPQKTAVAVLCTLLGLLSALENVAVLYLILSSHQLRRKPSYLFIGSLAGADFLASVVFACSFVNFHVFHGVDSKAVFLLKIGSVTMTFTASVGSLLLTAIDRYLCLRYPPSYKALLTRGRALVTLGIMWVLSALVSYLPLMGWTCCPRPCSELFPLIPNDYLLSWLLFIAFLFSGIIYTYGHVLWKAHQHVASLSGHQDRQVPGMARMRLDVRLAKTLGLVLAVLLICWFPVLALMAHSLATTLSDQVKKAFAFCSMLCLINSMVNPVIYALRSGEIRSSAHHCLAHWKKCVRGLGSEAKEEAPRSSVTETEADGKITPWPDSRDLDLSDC

COC(=O)[C@@](C)(NC(=O)c1cc(C)n(-c2cccc(C(F)(F)F)c2)n1)c1cccs1 [‘1350]
G15 hCB2 (Log [Compound] (M) -5.05788): 909 | Gq hCB2 (Log [Compound] (M) -5.05788): 1907 | Gs hCB2 (Log [Compound] (M) -5.05788): 9135 | G13 hCB2 (Log [Compound] (M) -5.47381): 332 | G15 hCB2 (Log [Compound] (M) -5.47381): 938 | Gq hCB2 (Log [Compound] (M) -5.47381): 1876 | Gs hCB2 (Log [Compound] (M) -5.47381): 8949 | G13 hCB2 (Log [Compound] (M) -5.89285): 339 | G15 hCB2 (Log [Compound] (M) -5.89285): 882 | Gq hCB2 (Log [Compound] (M) -5.89285): 1888 | Gs hCB2 (Log [Compound] (M) -5.89285): 8825 | G13 hCB2 (Log [Compound] (M) -6.31878): 340 | G15 hCB2 (Log [Compound] (M) -6.31878): 867 | Gq hCB2 (Log [Compound] (M) -6.31878): 1817 | Gs hCB2 (Log [Compound] (M) -6.31878): 8693 | G13 hCB2 (Log [Compound] (M) -6.72585): 337 | G15 hCB2 (Log [Compound] (M) -6.72585): 945 | Gq hCB2 (Log [Compound] (M) -6.72585): 1883 | Gs hCB2 (Log [Compound] (M) -6.72585): 8781 | G13 hCB2 (Log [Compound] (M) -7.14267): 379 | G15 hCB2 (Log [Compound] (M) -7.14267): 858 | Gq hCB2 (Log [Compound] (M) -7.14267): 1709 | Gs hCB2 (Log [Compound] (M) -7.14267): 8728 | G13 hCB2 (Log [Compound] (M) -7.55284): 353 | G15 hCB2 (Log [Compound] (M) -7.55284): 904 | Gq hCB2 (Log [Compound] (M) -7.55284): 1791 | Gs hCB2 (Log [Compound] (M) -7.55284): 8935 | G13 hCB2 (Log [Compound] (M) -8): 375 | G15 hCB2 (Log [Compound] (M) -8): 912 | Gq hCB2 (Log [Compound] (M) -8): 1812 | Gs hCB2 (Log [Compound] (M) -8): 8658 | G13 hCB2 (Log [Compound] (M) -8.22186): 364 | G15 hCB2 (Log [Compound] (M) -8.22186): 883 | Gq hCB2 (Log [Compound] (M) -8.22186): 1883 | Gs hCB2 (Log [Compound] (M) -8.22186): 9640 | G13 hCB2 (Log [Compound] (M) -8.39794): 287 | G15 hCB2 (Log [Compound] (M) -8.39794): 753 | Gq hCB2 (Log [Compound] (M) -8.39794): 1844 | Gs hCB2 (Log [Compound] (M) -8.39794): 8340 | G13 hCB2 (Log [Compound] (M) -8.68787): 322 | G15 hCB2 (Log [Compound] (M) -8.68787): 851 | Gq hCB2 (Log [Compound] (M) -8.68787): 1882 | Gs hCB2 (Log [Compound] (M) -8.68787): 8911 | G13 hCB2 (Log [Compound] (M) -9.15521): 356 | G15 hCB2 (Log [Compound] (M) -9.15521): 841 | Gq hCB2 (Log [Compound] (M) -9.15521): 1859 | Gs hCB2 (Log [Compound] (M) -9.15521): 8948 | G13 hCB2 (Log [Compound] (M) -9.61989): 303 | G15 hCB2 (Log [Compound] (M) -9.61989): 888 | Gq hCB2 (Log [Compound] (M) -9.61989): 1906 | Gs hCB2 (Log [Compound] (M) -9.61989): 8984 | G13 hCB2 (Log [Compound] (M) -10.0969): 348 | G15 hCB2 (Log [Compound] (M) -10.0969): 956 | Gq hCB2 (Log [Compound] (M) -10.0969): 1853 | Gs hCB2 (Log [Compound] (M) -10.0969): 9066 | G13 hCB2 (Log [Compound] (M) -10.5529): 333 | G15 hCB2 (Log [Compound] (M) -10.5529): 902 | Gq hCB2 (Log [Compound] (M) -10.5529): 1805 | Gs hCB2 (Log [Compound] (M) -10.5529): 9374 | G13 hCB2 (Log [Compound] (M) -11.0177): 340 | G15 hCB2 (Log [Compound] (M) -11.0177): 939 | Gq hCB2 (Log [Compound] (M) -11.0177): 1690 | Gs hCB2 (Log [Compound] (M) -11.0177): 9100 | G13 hCB2 (Log [Compound] (M) -11.4949): 323 | G15 hCB2 (Log [Compound] (M) -11.4949): 868 | Gq hCB2 (Log [Compound] (M) -11.4949): 1776 | Gs hCB2 (Log [Compound] (M) -11.4949): 8459 | G13 hCB2 (Log [Compound] (M) -11.9208): 343 | G15 hCB2 (Log [Compound] (M) -11.9208): 862 | Gq hCB2 (Log [Compound] (M) -11.9208): 1776 | Gs hCB2 (Log [Compound] (M) -11.9208): 9036 | G13 hCB2 (Log [Compound] (M) -12.3979): 327 | G15 hCB2 (Log [Compound] (M) -12.3979): 871 | Gq hCB2 (Log [Compound] (M) -12.3979): 1850 | Gs hCB2 (Log [Compound] (M) -12.3979): 8912 | G13 hCB2 (Log [Compound] (M) -12.8861): 293 | G15 hCB2 (Log [Compound] (M) -12.8861): 841 | Gq hCB2 (Log [Compound] (M) -12.8861): 1768 | Gs hCB2 (Log [Compound] (M) -12.8861): 8754 | G13 hCB2 (Log [Compound] (M) -13): 352 and 368 | G15 hCB2 (Log [Compound] (M) -13): 772 and 852 | Gq hCB2 (Log [Compound] (M) -13): 1940 and 1790 | Gs hCB2 (Log [Compound] (M) -13): 8891 and 8980 | EC50 (hCB2 Barr2 + GRK2): 4.2 nM | EC50 (hCB2 Gi2): 1.6 nM | EC50 (hCB2 GoB): 2.6 nM | EC50 (hCB2 Gz): 2.6 nM | Emax (read-out: Emax [95% CI], hCB2 Barr2 + GRK2): 30% | Emax (read-out: Emax [95% CI], hCB2 Gi1): 74% | Emax (read-out: Emax [95% CI], hCB2 Gi2): 61% | Emax (read-out: Emax [95% CI], hCB2 GoB): 59% | Emax (read-out: Emax [95% CI], hCB2 Gz): 52%

From article PMC11882969 (Nature Communications, 2025)
